ChEMBL document CHEMBL5143555, “Potentiating the intracellular killing of Staphylococcus aureus by dihydroquinazoline analogues as NorA efflux pump inhibitor” (Bioorg Med Chem, 2022)
In brackets after ≈: the same amount, converted by molar mass. Activity calls are given as the source filed them. The calls are words filed in the database; no cut-off is given here.

Legend:
Staphylococcus aureus [1] = experiment: Antibacterial activity against Staphylococcus aureus 1199 measured after 24 hrs by Muller Hinton broth based MTT assay; type: functional
[2] = biological target: T1, Quinolone resistance protein NorA (Staphylococcus aureus) (UniProt P0A0J7); experiment: Inhibition of NorA in Staphylococcus aureus 1199B assessed as potentiation of 3.1 ug/mL norfloxacin-induced bactericidal activity by measuring log reduction in bacterial count at 7.8 ug/mL measured after 8 hrs by time-kill kinetics assay; settings: dose 7.8 µg/ml
T1 sequence (whole entry): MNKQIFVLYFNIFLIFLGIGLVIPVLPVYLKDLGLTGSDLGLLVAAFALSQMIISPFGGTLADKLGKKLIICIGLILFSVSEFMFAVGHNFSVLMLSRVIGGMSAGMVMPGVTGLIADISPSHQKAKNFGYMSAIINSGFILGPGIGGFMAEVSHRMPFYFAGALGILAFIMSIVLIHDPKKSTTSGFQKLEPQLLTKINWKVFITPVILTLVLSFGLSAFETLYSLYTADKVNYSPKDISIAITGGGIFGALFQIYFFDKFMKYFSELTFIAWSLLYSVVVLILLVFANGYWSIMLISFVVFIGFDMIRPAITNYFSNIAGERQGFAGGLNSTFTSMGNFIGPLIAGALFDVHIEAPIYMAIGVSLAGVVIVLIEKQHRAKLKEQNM

[3] = biological target: T1, Quinolone resistance protein NorA (Staphylococcus aureus); experiment: Inhibition of NorA in Staphylococcus aureus 1199B assessed as potentiation of ethidium bromide-induced antibacterial activity by measuring ethidium bromide MIC at sub MIC relative to ethidium bromide MIC alone
Staphylococcus aureus [4] = experiment: Antibacterial activity against Staphylococcus aureus 1199B measured after 24 hrs by Muller Hinton broth based MTT assay; type: functional
[5] = biological target: T1, Quinolone resistance protein NorA (Staphylococcus aureus); experiment: Inhibition of NorA in Staphylococcus aureus 1199B infected human THP-1 cells assessed as potentiation of norfloxacin-induced bactericidal activity by measuring reduction in bacterial count at modulatory concentration measured after 24 hrs relative to control; type: cell-based
[6] = biological target: T1, Quinolone resistance protein NorA (Staphylococcus aureus); experiment: Inhibition of NorA in Staphylococcus aureus 1199B infected human THP-1 cells assessed as potentiation of norfloxacin-induced bactericidal activity by measuring reduction in intracellular invasion at modulatory concentration measured after 24 hrs; type: cell-based
[7] = biological target: T1, Quinolone resistance protein NorA (Staphylococcus aureus); experiment: Inhibition of NorA in Staphylococcus aureus 1199B assessed as potentiation of norfloxacin-induced morphological changes by measuring appearance of plicated and with cracked surface at sub MIC by field emission scanning electron microscopy
Staphylococcus aureus [8] = experiment: Up regulation of NorA gene expression in Staphylococcus aureus 1199B at 3.9 ug/ml measured after 2 hrs by qRT-PCR analysis relative to control; type: functional; settings: dose 3.9 µg/ml
[9] = biological target: T1, Quinolone resistance protein NorA (Staphylococcus aureus); experiment: Inhibition of NorA in Staphylococcus aureus 1199B assessed as potentiation of norfloxacin-induced antibacterial activity by measuring fractional inhibitory concentration
[10] = biological target: T1, Quinolone resistance protein NorA (Staphylococcus aureus); experiment: Inhibition of NorA in Staphylococcus aureus 1199B assessed as accumulation of ethidium bromide at 3.9 ug/ml by measuring fluorescence intensity measured at 5 mins interval for 40 mins by fluorescence spectrophotometry; settings: dose 3.9 µg/ml
[11] = Cytotoxicity against kidney epithelial cells (unknown origin) assessed as cell viability at 50 ug/mL measured after 24 hrs by alamar blue assay relative to control; type: toxicity, cell-based, Fetal kidney cell; settings: at 50 µg/mL, read-out: Activity
[12] = biological target: T1, Quinolone resistance protein NorA (Staphylococcus aureus); experiment: Inhibition of NorA in Staphylococcus aureus 1199B assessed as potentiation of norfloxacin-induced antibacterial activity by measuring Norfloxacin MIC at sub MIC
[13] = biological target: T1, Quinolone resistance protein NorA (Staphylococcus aureus); experiment: Inhibition of NorA in Staphylococcus aureus 1199B assessed as accumulation of norfloxacin at 3.9 ug/ml by measuring fluorescence intensity measured at 5 mins interval for 40 mins by fluorescence spectrophotometry; settings: dose 3.9 µg/ml
[14] = biological target: T1, Quinolone resistance protein NorA (Staphylococcus aureus); experiment: Inhibition of NorA in Staphylococcus aureus 1199B assessed as potentiation of norfloxacin-induced antibacterial activity by measuring Norfloxacin MIC at sub MIC relative to norfloxacin MIC alone
[15] = biological target: T1, Quinolone resistance protein NorA (Staphylococcus aureus); experiment: Inhibition of NorA in Staphylococcus aureus 1199B assessed as potentiation of ethidium bromide-induced antibacterial activity by measuring ethidium bromide MIC at sub MIC
[16] = biological target: T1, Quinolone resistance protein NorA (Staphylococcus aureus); experiment: Inhibition of NorA in Staphylococcus aureus 1199B infected human THP-1 cells assessed as potentiation of norfloxacin-induced bactericidal activity by measuring reduction in bacterial count at modulatory concentration measured after 24 hrs; type: cell-based
[17] = biological target: T1, Quinolone resistance protein NorA (Staphylococcus aureus); experiment: Inhibition of NorA in Staphylococcus aureus 1199B infected human THP-1 cells assessed as potentiation of 3.1 ug/ml norfloxacin-induced bactericidal activity by measuring log reduction in bacterial count at 15.6 ug/ml measured after 24 hrs relative to control; type: cell-based; settings: dose 15.6 µg/ml
[18] = biological target: T1, Quinolone resistance protein NorA (Staphylococcus aureus); experiment: Inhibition of NorA in Staphylococcus aureus 1199B infected human THP-1 cells assessed as potentiation of norfloxacin-induced bactericidal activity by measuring reduction in intracellular proliferation at modulatory concentration measured after 24 hrs; type: cell-based
[19] = biological target: T1, Quinolone resistance protein NorA (Staphylococcus aureus); experiment: Inhibition of NorA in Staphylococcus aureus 1199B infected human THP-1 cells assessed as potentiation of norfloxacin-induced bactericidal activity by measuring log reduction in bacterial count measured after 24 hrs relative to vancomycin; type: cell-based
Staphylococcus aureus [20] = experiment: Antibacterial activity against Staphylococcus aureus K1758 measured after 24 hrs by Muller Hinton broth based MTT assay; type: functional
[21] = biological target: T1, Quinolone resistance protein NorA (Staphylococcus aureus); experiment: Inhibition of NorA in Staphylococcus aureus 1199B assessed as potentiation of ethidium bromide-induced bactericidal activity at 7.8 ug/ml measured after 24 hrs by time-kill kinetics assay; settings: dose 7.8 µg/ml
[22] = biological target: T1, Quinolone resistance protein NorA (Staphylococcus aureus); experiment: Inhibition of NorA in Staphylococcus aureus 1199B assessed as potentiation of ethidium bromide-induced antibacterial activity by measuring fractional inhibitory concentration
Staphylococcus aureus [23] = experiment: Up regulation of NorA gene expression in Staphylococcus aureus 1199B at 3.9 ug/ml measured after 2 hrs in presence of norfloxacin by qRT-PCR analysis relative to control; type: functional; settings: dose 3.9 µg/ml
[24] = biological target: T1, Quinolone resistance protein NorA (Staphylococcus aureus); experiment: Inhibition of NorA in Staphylococcus aureus 1199B assessed as potentiation of 3.1 ug/mL norfloxacin-induced bactericidal activity by measuring log reduction in bacterial count at 7.8 ug/mL measured after 24 hrs by time-kill kinetics assay; settings: dose 7.8 µg/ml
[25] = biological target: T1, Quinolone resistance protein NorA (Staphylococcus aureus); experiment: Inhibition of NorA in Staphylococcus aureus 1199B assessed as accumulation of norfloxacin at 3.9 ug/ml measured at 5 mins interval for 40 mins by fluorescence spectrophotometry; settings: dose 3.9 µg/ml
[26] = biological target: T1, Quinolone resistance protein NorA (Staphylococcus aureus); experiment: Inhibition of NorA in Staphylococcus aureus 1199B assessed as accumulation of ethidium bromide at 50 ug/ml by measuring fluorescence intensity measured at 5 mins interval for 40 mins by fluorescence spectrophotometry; settings: dose 50.0 µg/ml
[27] = biological target: T1, Quinolone resistance protein NorA (Staphylococcus aureus); experiment: Inhibition of NorA in Staphylococcus aureus 1199B assessed as accumulation of norfloxacin at 50 ug/ml by measuring fluorescence intensity measured at 5 mins interval for 40 mins by fluorescence spectrophotometry; settings: dose 50.0 µg/ml

SMILES | MIC (Staphylococcus aureus [1]) [µg/mL] | fold change (FC) [3] | MIC (Staphylococcus aureus [4]) [µg/mL] | fractional inhibitory concentration index (FICI) [9] | Flu intensity [10] | viability at 24 h, 50 ug/mL [11] [%] | MIC [12] [µg/mL] | fold change (FC) [14] | MIC [15] [µg/mL] | MIC (Staphylococcus aureus [20]) [µg/mL] | inhibition [21] | fractional inhibitory concentration index (FICI) [22] | further results
Brc1ccc(C2=NC(c3ccc(Br)cc3)Nc3ccccc32)cc1 (centres undefined) | 125 (≈ 283 µM) | 4 | 500 (≈ 1130 µM) | 0.078 | 127 | 93.6 | 3.1 | 16 | 12.5 | 15.6 (≈ 35.3 µM) | Active | 0.266 | Activity [2]: > 3 log10CFU/ml; fold change (FC) [5]: 4; inhibition [6]: Active; inhibition [7]: Active; fold change (FC) (Staphylococcus aureus [8]): 3; Flu intensity [13]: 13000; Activity [16]: 4.13 log10CFU/ml; FC [17]: 5; inhibition [18]: Active; FC [19]: 3; fold change (FC) (Staphylococcus aureus [23]): 3
COc1ccc(C2N=C(c3ccccc3)c3ccccc3N2)cc1OC (centres undefined) | 125 (≈ 363 µM) | 8 | 500 (≈ 1450 µM) | 0.078 | 86 | 83.7 | 3.1 | 16 | 6.2 | 250 (≈ 726 µM) | Active | 0.141 | Activity [24]: > 3 log10CFU/ml; inhibition [25]: Active
COc1ccc(CCN(C)CCCC(C#N)(c2ccc(OC)c(OC)c2)C(C)C)cc1OC (centres undefined) [VERAPAMIL] |  | 8 | 400 (≈ 880 µM) |  |  |  | 12.5 | 4 | 6.2 |  |  |  | Flu intensity [26]: 189; Flu intensity [27]: 1590
